# Data reported in patent US20220213092A1, “BICYCLIC PYRAZOLE BRUTON'S TYROSINE KINASE INHIBITORS” (AbbVie Inc., priority 2020, published 2022).
# pEC50, pIC50: −log10 of the molar value.
# Experiments:
# [1] = biological target: T1, Full length BTK enzyme (human BTK residues 2-659) (Homo sapiens, UniProt Q06187); test: BTK MSA with full length BTK enzyme, used for Examples 50, 51, 62 and 63; type: biochemical; conditions: Examples 50, 51, 62 and 63: 1 mM ATP, 0.6 nM full length BTK enzyme, 3 hours at room temperature
# T1 construct: 6His (N); Flag (N); TEV cleavage site (N); Serine (single linker residue before BTK residue 2) (N); made in house; host or cells: baculovirus (pFastBac vector)
# T1 sequence (Q06187 2-659): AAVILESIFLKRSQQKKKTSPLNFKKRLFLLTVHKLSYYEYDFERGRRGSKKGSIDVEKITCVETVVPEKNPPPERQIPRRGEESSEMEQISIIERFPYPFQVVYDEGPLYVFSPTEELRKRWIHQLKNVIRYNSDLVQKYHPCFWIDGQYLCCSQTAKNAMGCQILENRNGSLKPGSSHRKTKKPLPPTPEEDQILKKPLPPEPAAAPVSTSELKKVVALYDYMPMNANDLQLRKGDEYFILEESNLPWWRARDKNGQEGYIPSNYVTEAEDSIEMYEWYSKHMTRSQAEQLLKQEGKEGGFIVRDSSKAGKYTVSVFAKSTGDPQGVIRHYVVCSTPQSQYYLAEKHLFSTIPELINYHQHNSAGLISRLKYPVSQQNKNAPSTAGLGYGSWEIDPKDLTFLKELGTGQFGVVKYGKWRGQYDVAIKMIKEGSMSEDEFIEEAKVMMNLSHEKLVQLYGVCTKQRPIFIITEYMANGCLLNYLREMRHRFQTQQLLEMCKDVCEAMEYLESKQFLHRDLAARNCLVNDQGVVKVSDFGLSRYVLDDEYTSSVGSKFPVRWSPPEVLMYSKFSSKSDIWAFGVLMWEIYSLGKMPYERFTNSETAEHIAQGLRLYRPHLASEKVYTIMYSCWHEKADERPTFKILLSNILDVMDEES
# Experimental: Kinase activities for Examples 50, 51, 62 and 63 were measured in vitro using the following electrophoretic mobility shift assay (MSA). The kinase reactions were assembled in a total volume of 20 μL in 384 well plates. To each well, 20 nL test compound, or control, in 100% dimethyl sulfoxide was spotted using Echo®, a liquid dispensing instrument (Labcyte, Indianapolis, Ind.). To each well was added: 12 μL of 1.67× Full length BTK enzyme in Master Buffer (Master Buffer components: 20 mM HEPES pH 7.4, 10 mM MgCl2, 1 mM DTT, 0.1 mM sodium orthovanadate, 10 mM beta-glycerophosphate, and 0.0075% w/v Triton x-100). Full length BTK enzyme was 6His-Flag-(TEV)-S[BTK(hu) (2-659)]*BEV, pFastBac*. [Note: this is a description of the exact amino acid sequence of the expressed BTK construct from N- to C-terminus: 6Histidines, Flag tag sequence, TEV cleavage site, Serine, human BTK residues 2-659; and BEV=expressed in baculovirus, pFastBac is the expression vector used].
# Enzyme and compound/inhibitor were optionally pre-incubated. To each well was added: 8 μL of 2.5×ATP and substrate in 1× Master Buffer (1× Master Buffer as described above). The plate was incubated at room temperature for 3 hours. The reaction was terminated by adding 30 μL of 1.67× Stop Buffer (Stop Buffer components 10 mM EDTA in water), to each well. The final reaction mixture was as follows: 20 mM HEPES, pH 7.4; 0.0075% Triton X-100; 1 mM DTT; 10 mM MgCl2; 0.1 mM sodium orthovanadate; 10 mM beta-glycerophosphate; 0.1% dimethyl sulfoxide (from compound); 1 mM ATP; 1 μM (OG488-SEQ ID NO. 2-NH2) peptide substrate; and 0.6 nM BTK enzyme. […] The kinase activity for the kinases in Table 3 were measured at 3 hours incubation time, except that in the case of MAP2K1 and MAP2K2 assay, pre-activation of ERK was done for 30 min with 6 μM of ATP, and then the detection of activated ERK in the presence of compounds was done after 60 minutes of incubation.
# The terminated reactions were analyzed using a 12 channel LABCHIP® 3000 microfluidic detection instrument (available from Caliper Life Sciences, Waltham, Mass.). […] As substrate and product peptides were separated, two peaks of fluorescence were observed. Change in the relative fluorescence intensity of the substrate and product peaks was the parameter measured, reflecting enzyme activity. […] Capillary electrophoregrams (RDA acquisition files) were analyzed using HTS Well Analyzer software (available from Caliper Life Sciences, Waltham, Mass.).
# Activity in each sample was determined as the product to sum ratio (PSR): P/(S+P), where P was the peak height of the product peptide and S was the peak height of the substrate peptide. For each compound, enzyme activity was measured at various concentrations (12 concentrations of compound spaced by 3× dilution intervals). […]
# [2] = biological target: T2, Phosphorylation of Y223 of BTK (Homo sapiens, UniProt Q06187); test: Whole blood compound screening, phosphorylation of Y223 site of BTK (MSD assay); type: cell-based; conditions: healthy human whole blood, 2 hours at 37° C., 3 separate donors; read-out: WB BTK-pY223 EC50
# T2 construct: host or cells: healthy human whole blood, 3 donors
# T2 sequence (Q06187 whole entry): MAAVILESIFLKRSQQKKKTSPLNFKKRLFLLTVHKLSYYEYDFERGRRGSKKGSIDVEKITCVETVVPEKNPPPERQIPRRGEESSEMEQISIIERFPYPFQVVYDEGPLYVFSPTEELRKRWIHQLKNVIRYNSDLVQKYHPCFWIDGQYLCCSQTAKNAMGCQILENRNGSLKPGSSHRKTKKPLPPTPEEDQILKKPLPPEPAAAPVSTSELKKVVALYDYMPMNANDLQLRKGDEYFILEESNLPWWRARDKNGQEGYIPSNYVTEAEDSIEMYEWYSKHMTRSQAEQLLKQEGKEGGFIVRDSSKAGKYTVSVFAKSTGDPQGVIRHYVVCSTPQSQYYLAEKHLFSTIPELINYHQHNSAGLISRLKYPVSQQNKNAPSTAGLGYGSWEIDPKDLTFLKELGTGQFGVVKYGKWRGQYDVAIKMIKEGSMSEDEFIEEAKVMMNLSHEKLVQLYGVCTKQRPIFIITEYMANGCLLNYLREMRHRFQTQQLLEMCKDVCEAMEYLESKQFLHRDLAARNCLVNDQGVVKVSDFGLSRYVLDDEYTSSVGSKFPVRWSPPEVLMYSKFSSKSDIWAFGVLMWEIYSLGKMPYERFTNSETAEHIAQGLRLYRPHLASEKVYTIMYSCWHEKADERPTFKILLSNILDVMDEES
# How it was run: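 Heparinized human whole blood from 3 donors treated 2 h at 37 °C with compounds (8 points, top 10 μM, 1:4 dilution, 0.2% DMSO), then lysed. BTK pY223 quantified by MSD sandwich immunoassay (anti-BTK capture, anti-pY223 detection); EC50 from concentration response.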
pIC50 [1],pEC50 [2],Structure (SMILES)
7.41,,"CCO/C=C/C(=O)N1CCN([C@@H]2CCNc3c2nn(-c2ccc(Oc4ccccc4)cc2)c3C(N)=O)CC1 [Example 50, (7R)-7-{4-[(2E)-3-ethoxyprop-2-enoyl]piperazin-1-yl}-2-(4-phenoxyphenyl)-4,5,6,7-tetrahydro-2H-pyrazolo[4,3-b]pyridine-3-carboxamide]"
6.29,,"COC(=O)/C=C/C(=O)N1CCN(C2CCNc3c2nn(-c2ccc(Oc4ccccc4)cc2)c3C(N)=O)CC1 (stereo not drawn) [Example 51, methyl (2E)-4-{4-[3-carbamoyl-2-(4-phenoxyphenyl)-4,5,6,7-tetrahydro-2H-pyrazolo[4,3-b]pyridin-7-yl]piperazin-1-yl}-4-oxobut-2-enoate]"
8.21,8.11,"C=CC(=O)N1CC(N2CCNc3c2nn(-c2ccc(Oc4cccc(F)c4)cc2)c3C(N)=O)C1 [Example 62, 2-[4-(3-fluorophenoxy)phenyl]-7-[1-(prop-2-enoyl)azetidin-3-yl]-4,5,6,7-tetrahydro-2H-pyrazolo[3,4-b]pyrazine-3-carboxamide]"
7.69,7.71,"C=CC(=O)N1CC(N2CCNc3c2nn(-c2ccc(Oc4ccc(F)c(F)c4)cc2)c3C(N)=O)C1 [Example 63, 2-[4-(3,4-difluorophenoxy)phenyl]-7-[1-(prop-2-enoyl)azetidin-3-yl]-4,5,6,7-tetrahydro-2H-pyrazolo[3,4-b]pyrazine-3-carboxamide]"
